Laboratory results reported in patent US20220397580A1, “METHOD OF DETECTING A NEURODEGENERATIVE DISEASE” (NATIONAL UNIVERSITY OF SINGAPORE, priority 2019, published 2022).

System: exosomes derived from neuronal cells (SH-SY5Y)
Test: Exosome-Aβ association kinetics on APEX (SPR) sensor functionalized with protein aggregates
Assay type: binding, Human
Conditions: relative to BSA controls
Method: Characterization of exosome-A13 association. The prepared protein aggregates (Aβ42 and BSA control) were used for surface functionalization onto the APEX sensors, via EDC/NHS coupling as previously described. Unbound protein aggregates were washed away with PBS. The amount of protein conjugated was measured from the resultant transmission spectral shifts. This information was used to determine the number of conjugated protein aggregates and their associated total protein surface area for exosome binding (see below for detailed information), so as to normalize for binding affinities. Following surface functionalization with the protein aggregates, exosomes ([…]) were introduced onto the sensors. Spectral changes were measured every 3 s for a total duration of 480 s to construct real-time kinetics sensorgrams. Exosome association kinetics and binding affinities were determined for different-sized protein aggregates.
To account for protein aggregate size differences as well as SPR-associated exponential decay of sensitivity (with increasing distance from the sensing surface), the following equation was used
S=E×∫0^2rπ[r^2−(r−z)^2]×e^(−2z/l^d^)dz […]
All protein aggregates were approximated as spheres, as supported by transmission electron micrographs (FIG. 3b, left) and their r determined from dynamic light scattering analysis. […]

**Q.** How did the “KD(small)/KD(big)” value (exosome binding data normalized to aggregate surface area) turn out when “bigger Aβ42 aggregates: Aβ42 protein (rPeptide) incubated with agitation for 1 h to induce further aggregation, filtered through 0.2-μm membrane” was run?
**A.** Its value is 5.27.

**Q.** And the “binding affinity of the vesicles compared to the smaller Aβ42 aggregates” value (neuron-derived exosomes, normalized to aggregate surface area)?
**A.** The value was greater than 5 fold.
